Data on 13 compounds can be found in US10829481B2, “Benzimidazole derivatives as modulators of ROR-gamma” (Vitae Pharmaceuticals, LLC, priority 2016, dated 2020).

In general, Ki refers to the dissociation constant of the complex between target and ligand, obtained from inhibition or displacement. The IC50 is the concentration needed to halve the response being measured. Lower therefore signals greater potency in that assay.

Assay [1] concerns the target recombinant RORγ Ligand Binding Domain (LBD) protein (Homo sapiens (Human), UniProt P51449). The experiment in a line: Radio-Ligand RORγ Binding Assay (Assay 1). As to conditions: competition with 25-hydroxy [26,27-3H]-cholesterol, SPA. The gist of the method: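 His-GST-fused RORγ ligand-binding domain (24 nM solution) competed between compounds and tritiated 25-hydroxycholesterol (8.6 nM solution), read by SPA after brief rt incubations in pH 7.4 HEPES/glycerol/detergent buffer. Four-parameter curve fitting gave IC50 at inflection, converted to Ki using radioligand concentration and KD.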

Assay [2] has as its target full-length RORγt in Jurkat cells (Homo sapiens (Human), UniProt P51449). Briefly: RORγt 5×RORE Assay in Jurkat Cells (Assay 2). It counts as cell-based. As to conditions: 5×RORE Nanoluc luciferase reporter. Background: In a reporter assay the amount or activity of a reporter protein is the signal.

Chain of recombinant RORγ Ligand Binding Domain (LBD) protein (P51449 269-508): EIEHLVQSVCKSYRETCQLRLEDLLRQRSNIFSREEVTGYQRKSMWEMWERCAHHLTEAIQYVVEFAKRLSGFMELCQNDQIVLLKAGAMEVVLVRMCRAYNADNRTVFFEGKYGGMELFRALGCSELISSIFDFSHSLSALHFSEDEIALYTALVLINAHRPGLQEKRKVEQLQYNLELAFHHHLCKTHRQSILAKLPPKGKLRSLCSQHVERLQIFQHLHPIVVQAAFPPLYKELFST
Chain of full-length RORγt in Jurkat cells (P51449 other isoform, or with tags, fused parts or gaps): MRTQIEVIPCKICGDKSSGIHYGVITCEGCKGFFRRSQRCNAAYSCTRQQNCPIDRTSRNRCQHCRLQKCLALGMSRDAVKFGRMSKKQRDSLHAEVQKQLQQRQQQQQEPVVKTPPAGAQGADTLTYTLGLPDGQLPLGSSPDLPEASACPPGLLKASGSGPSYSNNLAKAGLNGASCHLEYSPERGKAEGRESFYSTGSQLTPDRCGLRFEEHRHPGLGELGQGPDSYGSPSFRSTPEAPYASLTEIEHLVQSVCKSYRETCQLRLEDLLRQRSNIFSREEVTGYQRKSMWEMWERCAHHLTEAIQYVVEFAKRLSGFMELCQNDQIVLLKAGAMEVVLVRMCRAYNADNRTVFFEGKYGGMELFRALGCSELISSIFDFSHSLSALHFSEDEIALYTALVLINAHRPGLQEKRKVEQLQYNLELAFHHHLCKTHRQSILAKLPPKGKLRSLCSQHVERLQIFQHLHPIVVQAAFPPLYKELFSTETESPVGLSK

On to `CCS(=O)(=O)c1ccc(CNC(=O)c2ccc3c(c2)nc(C2CC2)n3Cc2cccc(O)c2O)cc1` [I-154, 2-cyclopropyl-1-(2,3-dihydroxybenzyl)-N-(4-(ethylsulfonyl)benzyl)-1H-benzo[d]imidazole-5-carboxamide], for which the Ki in assay [1] was below 0.1 µM. The compound further displayed an IC50 in assay [2] above 1 µM.
Consider `CCS(=O)(=O)c1ccc(CNC(=O)c2ccc3c(c2)nc(C(F)(F)F)n3CC2CCN(c3ncc(F)cn3)CC2)cc1` [I-158, N-(4-(ethylsulfonyl)benzyl)-1-((1-(5-fluoropyrimidin-2-yl)piperidin-4-yl)methyl)-2-(trifluoromethyl)-1H-benzo[d]imidazole-5-carboxamide], for which the Ki in assay [1] is below 0.1 µM. Further, the IC50 in assay [2] is above 1 µM.
As to `CCS(=O)(=O)c1ccc(CNC(=O)c2ccc3c(c2)nc(N(C)C)n3Cc2cccc3c2OC(F)(F)O3)cc1` [I-162, 1-((2,2-difluorobenzo[d][1,3]dioxol-4-yl)methyl)-2-(dimethylamino)-N-(4-(ethylsulfonyl)benzyl)-1H-benzo[d]imidazole-5-carboxamide], the Ki in assay [1] was below 0.1 µM. In addition, in assay [2], the IC50 is below 0.1 µM.
Take `O=C(NCC1CCN(S(=O)(=O)CCO)CC1)c1ccc2c(c1)nc(C(F)(F)F)n2Cc1cccc2c1OC(F)(F)O2` [I-163, 1-((2,2-difluorobenzo[d][1,3]dioxol-4-yl)methyl)-N-((1-((2-hydroxyethyl)sulfonyl)piperidin-4-yl)methyl)-2-(trifluoromethyl)-1H-benzo[d]imidazole-5-carboxamide]: in assay [1], the Ki is below 0.1 µM. Besides, the IC50 in assay [2] is below 0.1 µM.
Take `CCS(=O)(=O)c1ccc([C@H](CC(=O)O)NC(=O)c2ccc3c(c2)nc(C(F)(F)F)n3Cc2cccc3c2OC(F)(F)O3)cc1` [I-165, (S)-3-(1-((2,2-difluorobenzo[d][1,3]dioxol-4-yl)methyl)-2-(trifluoromethyl)-1H-benzo[d]imidazole-5-carboxamido)-3-(4-(ethylsulfonyl)phenyl)propanoic acid]: the Ki in assay [1] was below 0.1 µM. Further, in assay [2], the IC50 was above 1 µM.
In the case of `CCS(=O)(=O)c1ccc([C@H](COCC(=O)O)NC(=O)c2ccc3c(c2)nc(C(F)(F)F)n3Cc2cccc3c2OC(F)(F)O3)cc1` [I-166, (R)-2-(2-(1-((2,2-difluorobenzo[d][1,3]dioxol-4-yl)methyl)-2-(trifluoromethyl)-1H-benzo[d]imidazole-5-carboxamido)-2-(4-(ethylsulfonyl)phenyl)ethoxy)acetic acid], in assay [1], the Ki is below 0.1 µM. Besides, the IC50 in assay [2] is above 1 µM.
For `CCS(=O)(=O)c1ccc([C@H](CC(=O)NC)NC(=O)c2ccc3c(c2)nc(C(F)(F)F)n3Cc2cccc3c2OC(F)(F)O3)cc1` [I-167, (S)-1-((2,2-difluorobenzo[d][1,3]dioxol-4-yl)methyl)-N-(1-(4-(ethylsulfonyl)phenyl)-3-(methylamino)-3-oxopropyl)-2-(trifluoromethyl)-1H-benzo[d]imidazole-5-carboxamide], the Ki in assay [1] was below 0.1 µM. This compound also registered an IC50 in assay [2] below 0.1 µM.
For the compound `CCS(=O)(=O)c1ccc([C@H](CC(N)=O)NC(=O)c2ccc3c(c2)nc(C(F)(F)F)n3Cc2cccc3c2OC(F)(F)O3)cc1` [I-168, (S)-N-(3-amino-1-(4-(ethylsulfonyl)phenyl)-3-oxopropyl)-1-((2,2-difluorobenzo[d][1,3]dioxol-4-yl)methyl)-2-(trifluoromethyl)-1H-benzo[d]imidazole-5-carboxamide], the Ki in assay [1] was below 0.1 µM. The IC50 in assay [2] was below 0.1 µM.
Regarding `CNC(=O)CS(=O)(=O)c1ccc(CNC(=O)c2ccc3c(c2)nc(C(F)(F)F)n3Cc2cccc3c2OC(F)(F)O3)cc1` [I-169, 1-((2,2-difluorobenzo[d][1,3]dioxol-4-yl)methyl)-N-(4-((2-(methylamino)-2-oxoethyl)sulfonyl)benzyl)-2-(trifluoromethyl)-1H-benzo[d]imidazole-5-carboxamide], the Ki in assay [1] is below 0.1 µM. This compound also had an IC50 in assay [2] below 0.1 µM.
For the compound `CCS(=O)(=O)c1ccc(C(O)C(=O)Nc2ccc3c(c2)nc(C(F)(F)F)n3Cc2cccc3c2OC(F)(F)O3)cc1` (centres unmarked) [I-170, N-(1-((2,2-difluorobenzo[d][1,3]dioxol-4-yl)methyl)-2-(trifluoromethyl)-1H-benzo[d]imidazol-5-yl)-2-(4-(ethylsulfonyl)phenyl)-2-hydroxyacetamide], the Ki in assay [1] is below 0.1 µM. Also, the IC50 in assay [2] is below 0.1 µM.
In the case of `CCS(=O)(=O)c1ccc(CNC(=O)c2ccc3c(c2)nc(C(F)(F)F)n3Cc2cccc3c2CCO3)cc1` [I-172, 1-((2,3-dihydrobenzofuran-4-yl)methyl)-N-(4-(ethylsulfonyl)benzyl)-2-(trifluoromethyl)-1H-benzo[d]imidazole-5-carboxamide], in assay [1], the Ki was below 0.1 µM. For the same compound, the IC50 in assay [2] is below 0.1 µM.
`CCS(=O)(=O)c1ccc(CNC(=O)c2ccc3c(c2)nc(C(=O)OC)n3Cc2cccc3c2OC(F)(F)O3)cc1` [I-173, methyl 1-((2,2-difluorobenzo[d][1,3]dioxol-4-yl)methyl)-5-((4-(ethylsulfonyl)benzyl)carbamoyl)-1H-benzo[d]imidazole-2-carboxylate]: the Ki in assay [1] was below 0.1 µM. This compound showed an IC50 in assay [2] of 0.1 to 1 µM.
As for “(R)-1-(1-(3-cyanophenyl)ethyl)-N-(4-(ethylsulfonyl)benzyl)-2-(trifluoromethyl)-1H-benzo[d]imidazole-5-carboxamide [I-93.2]”, the Ki in assay [1] was below 0.1 µM. The IC50 in assay [2] was below 0.1 µM.
